Numbered stars: 1 amine (or outer) side, 2 acyl side, 3 side chain; on linkers, the order of the positions; unused ones are H or OH. Bridge positions count the residues as written; N and C are the ends. Square brackets hold non-standard residues; d marks the D form. Peptide text beside a SMILES is read from it. * marks the point of attachment. X1 = O=C([C@@H]1C[C@@H](SCc2cccc(C[*:3])c2)CN1[*:1])[*:2]; X2 = C=CCS[C@@H]1C[C@@H](C(=O)[*:2])N([*:1])C1; Ac3c = NC1(C(=O)O)CC1; Allyl = C=CC*
Legend:
[1] = HeLa cell lysate stability assay; details: for half-life / remaining at 4 h: human; for primary degradation products in HeLa cell lysate: after 24 hours, mass spectrometry
CD thermal melts = format: physicochemical; details: CD thermal melt, Trp-Trp exciton coupling band at 228 nm, aqueous solution
in vitro = details: human, cells or culture medium

SMILES | half-life [1] [h] | primary degradation products in HeLa cell lysate [1] | remaining at 4 h [1] [%] | T50 (temperature at which the peptide retains 50% structure) (CD thermal melts) [°C] | remaining at 2 h (in vitro) [%]
CC(=O)N[C@H](C(=O)N[C@@H](Cc1c[nH]c2ccccc12)C(=O)N[C@H](Cc1ccc(O)cc1)C(=O)N[C@H]1CSCc2cccc(c2)CS[C@@H]2C[C@@H](C(=O)NCC(=O)N[C@@H](Cc3c[nH]c4ccccc34)C(=O)N[C@H](C(N)=O)[C@@H](C)O)N(C2)C(=O)CNC(=O)C2(CC2)NC(=O)[C@H]2CCCN2C(=O)[C@H]([C@@H](C)O)NC1=O)[C@@H](C)O [Δ4MP-m] (Ac-TW[dY]CT[dP][Ac3c]G[X1]GWT-NH2; thioether 4-9) | 21 |  |  |  | 
C[C@@H](O)[C@H](NC(=O)[C@H](Cc1c[nH]c2ccccc12)NC(=O)CNC(=O)[C@@H]1C[C@@H]2CN1C(=O)CNC(=O)C1(CC1)NC(=O)[C@H]1CCCN1C(=O)[C@H]([C@@H](C)O)NC(=O)[C@@H](NC(=O)[C@@H](Cc1ccc(O)cc1)NC(=O)[C@H](Cc1c[nH]c3ccccc13)NC(=O)[C@@H](NC(=O)[C@@H](N)CCCCN)[C@@H](C)O)CSCc1cccc(c1)CS2)C(=O)N[C@@H](CCC(=O)O)C(=O)O [4MP-m] (H-KTW[dY]CT[dP][Ac3c]G[X1]GWTE-OH; thioether 5-10; N-terminus and C-terminus assumed) |  | intact except for the two N-terminal amino acids | ~7 | 58.5 | 
C=CCSC[C@H](NC(=O)[C@@H](Cc1ccc(O)cc1)NC(=O)[C@H](Cc1c[nH]c2ccccc12)NC(=O)[C@@H](NC(C)=O)[C@@H](C)O)C(=O)N[C@H](C(=O)N1CCC[C@@H]1C(=O)NC1(C(=O)NCC(=O)N2C[C@H](SCC=C)C[C@H]2C(=O)NCC(=O)N[C@@H](Cc2c[nH]c3ccccc23)C(=O)N[C@H](C(N)=O)[C@@H](C)O)CC1)[C@@H](C)O [Δ4MP-a] (Ac-TW[dY]C(Allyl)T[dP][Ac3c]G[X2]GWT-NH2; N-terminus and C-terminus assumed) | 30 |  |  |  | 
CC(=O)N[C@H](C(=O)N[C@@H](Cc1c[nH]c2ccccc12)C(=O)N[C@@H](CC(N)=O)C(=O)N1CCC[C@H]1C(=O)N[C@@H](C)C(=O)N[C@H](C(=O)NCC(=O)N[C@@H](CCCCN)C(=O)N[C@@H](Cc1c[nH]c2ccccc12)C(=O)N[C@H](C(N)=O)[C@@H](C)O)[C@@H](C)O)[C@@H](C)O [ΔHP7] (Ac-TWNPATGKWT-NH2; N-terminus and C-terminus assumed) |  |  |  |  | ~19
C=CCSC[C@H](NC(=O)[C@@H](Cc1ccc(O)cc1)NC(=O)[C@H](Cc1c[nH]c2ccccc12)NC(=O)[C@@H](NC(=O)[C@@H](N)CCCCN)[C@@H](C)O)C(=O)N[C@H](C(=O)N1CCC[C@@H]1C(=O)NC1(C(=O)NCC(=O)N2C[C@H](SCC=C)C[C@H]2C(=O)NCC(=O)N[C@@H](Cc2c[nH]c3ccccc23)C(=O)N[C@H](C(=O)N[C@@H](CCC(=O)O)C(=O)O)[C@@H](C)O)CC1)[C@@H](C)O [4MP-a] (H-KTW[dY]C(Allyl)T[dP][Ac3c]G[X2]GWTE-OH; N-terminus and C-terminus assumed) |  | intact except for the two N-terminal amino acids | ~22 | 50.8 | 
C[C@H](NC(=O)[C@@H]1CCCN1C(=O)[C@H](CC(N)=O)NC(=O)[C@H](Cc1c[nH]c2ccccc12)NC(=O)[C@@H](NC(=O)[C@@H](N)CCCCN)[C@@H](C)O)C(=O)N[C@H](C(=O)NCC(=O)N[C@@H](CCCCN)C(=O)N[C@@H](Cc1c[nH]c2ccccc12)C(=O)N[C@H](C(=O)N[C@@H](CCC(=O)O)C(=O)O)[C@@H](C)O)[C@@H](C)O [HP7, reference compound] (H-KTWNPATGKWTE-OH; N-terminus and C-terminus assumed) |  |  |  | 58.7 | ~0

From article PMC9250296 (Journal of the American Chemical Society, 2021)
